Assay results reported in BindingDB's records for doi:10.1021/jm030030n (Virginia Commonwealth University, 2003).

Key:
[1] = Binding affinity for rodent 5-hydroxytryptamine 5A receptor
[2] = Binding affinity of compound towards rodent 5-hydroxytryptamine 7 receptor

Row | Compound | Ki [1] | Ki [2]
1 | CCN(CC)C(=O)[C@@H]1C=C2c3cccc4[nH]c(Br)c(c34)C[C@H]2N(C)C1 [LSD,2-Bromo] | < 10 nM | –
2 | CCN(CC)C(=O)[C@@H]1C=C2c3cccc4[nH]c(I)c(c34)C[C@H]2N(C)C1 | < 10 nM | –
3 | CCCCC(=O)c1ccc(F)cc1 [1-(4-Fluoro-phenyl)-pentan-1-one] | – | 140 nM
4 | Oc1ccc2cccc(N3CCNCC3)c2c1 [8-Piperazin-1-yl-naphthalen-2-ol] | 3 nM | –
